Measurements as given in US9738902B2, “Modified PYR/PYL receptors activated by ligands” (priority 2013, dated 2017).

Key:
[1] = target: T1, PYR1 K59R F108A S122G V83L (Arabidopsis thaliana, UniProt O49686, F108A/K59R/S122G/V83L); assay: Y2H NNK Mutagenesis (HAB1, X-gal); type: cell-based
T1 construct: expressed in transfected cells; host or cells: S. cerevisiae Y190 pACT-HAB1
Experimental: (§1) The preceding efforts identified PYR1^K59R,F108A,S122G, which is responsive to mandipropamid concentrations as low as 1 μM. We next attempted to improve the mandipropamid receptor by screening for additional pocket-located mutations that improve compound responsiveness. We subjected PYR1^K59R,F108A,S122G to two separate mutagenesis experiments. We first examined the effects of adding single additional mutations at each of the other 23 ligand-contacting residues that are not altered in the PYR1^K59R,F108A,S122G backbone, using NNK codon-randomization primers. Each NNK primer was used to generate a pool of PYR1^K59R,F108A,S122G receptors containing additional mutations at a single ligand-contacting residue. DNA for this mutant pool was prepared and then transformed into a pACT-HAB1 MAV99 reporter strain, which allows URA3 based selection of active receptors (Peterson et al., 2010). The pooled yeast cells were plated on media containing 0.5 μM mandipropamid, a concentration too low to allow growth of a control MAV99 pACT-HAB1 reporter strain expressing pBD-PYR1^K59R,F108A,S122G. […] Mutants enabling ligand-dependent interactions were sequenced and plasmid DNA for these mutants was isolated and introduced into Y190 pACT-HAB1 so that X-gal staining could be utilized to evaluate receptor sensitivity. This process was repeated for each of the remaining 22 NNK primers. These efforts yielded 10 mutations (V81C, V81I, V81T, V83L, L87A, F159L, F159M, F159V, A160V, V164I) that enhance the mandipropamid sensitivity of PYR1^K59R,F108A,S122G (see entries labeled “NNK Mutagenesis Screen” in Table 1).

[2] = target: T2, PYR1 K59R F108A S122G V164I (Arabidopsis thaliana, UniProt O49686, F108A/K59R/S122G/V164I); assay: Y2H NNK Mutagenesis (HAB1, X-gal); type: cell-based
T2 construct: expressed in transfected cells; host or cells: S. cerevisiae Y190 pACT-HAB1
T2 sequence (O49686 whole entry K59R/F108A/S122G/V164I): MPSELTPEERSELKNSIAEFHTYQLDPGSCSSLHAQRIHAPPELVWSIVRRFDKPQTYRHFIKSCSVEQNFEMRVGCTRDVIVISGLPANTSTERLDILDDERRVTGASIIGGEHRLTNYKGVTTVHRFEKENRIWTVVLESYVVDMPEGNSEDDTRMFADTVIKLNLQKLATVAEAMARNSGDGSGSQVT
T2 sequence (Q9CAJ0 23-511 partner): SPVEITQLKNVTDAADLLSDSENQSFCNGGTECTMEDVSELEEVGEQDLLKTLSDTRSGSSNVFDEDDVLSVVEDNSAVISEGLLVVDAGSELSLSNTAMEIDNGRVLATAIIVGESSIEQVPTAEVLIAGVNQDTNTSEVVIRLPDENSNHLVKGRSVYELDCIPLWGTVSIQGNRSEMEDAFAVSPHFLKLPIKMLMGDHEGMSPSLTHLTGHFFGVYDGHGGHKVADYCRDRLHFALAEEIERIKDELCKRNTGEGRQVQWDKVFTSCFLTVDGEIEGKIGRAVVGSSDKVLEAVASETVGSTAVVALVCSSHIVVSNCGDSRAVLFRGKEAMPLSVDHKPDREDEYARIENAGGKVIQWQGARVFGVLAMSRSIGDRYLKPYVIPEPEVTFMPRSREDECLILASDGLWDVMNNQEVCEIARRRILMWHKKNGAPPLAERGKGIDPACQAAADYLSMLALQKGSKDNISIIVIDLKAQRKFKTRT
Experimental: as §1

[3] = target: T3, PYR1 K59R F108A S122G V81T (Arabidopsis thaliana, UniProt O49686, F108A/K59R/S122G/V81T); assay: Y2H NNK Mutagenesis (HAB1, X-gal); type: cell-based
T3 construct: expressed in transfected cells; host or cells: S. cerevisiae Y190 pACT-HAB1
T3 sequence (O49686 whole entry K59R/V81T/F108A/S122G): as the sequence (O49686 whole entry K59R/F108A/S122G/V164I) above, with V81T, I164V counted along it
T3 sequence (Q9CAJ0 23-511 partner): as the sequence (Q9CAJ0 23-511 partner) above
Experimental: as §1

PYR1 K59R F108Q S122G = target: T4, PYR1 K59R F108Q S122G (Arabidopsis thaliana, UniProt O49686, F108Q/K59R/S122G); assay: Y2H Combinatorial Mutagenesis Screen I (HAB1, X-gal); type: cell-based
T4 construct: expressed in transfected cells; host or cells: S. cerevisiae Y190 two-hybrid reporter strain
T4 sequence (O49686 whole entry K59R/F108Q/S122G): as the sequence (O49686 whole entry K59R/F108A/S122G/V164I) above, with A108Q, I164V counted along it
T4 sequence (Q9CAJ0 23-511 partner): as the sequence (Q9CAJ0 23-511 partner) above
Text: (§2) This screening approach yielded mutants at ligand contacting residues that alter sensitivity to specific ligands. We reasoned that receptor sensitivity could be improved by systematically constructing combinations of the best mutant variants identified in the first round of screening. To test this, we constructed mutant combinations using the strongest mutations identified for mandipropamid, benzothiadiazole, benoxacor or fludioxonil sensitivity. The mutations selected for combinatorial mutagenesis are listed in bold type in Table 1; The mutant combinations were constructed using the QuickChange Lightning Multi Site-Directed PCR Mutagenesis kit (Agilent, USA) using pBD-PYR1^K59R template DNA and mutagenic primers, essentially as previously described (Mosquna et al., 2011). The mutant combinations were sequence validated, introduced into the pACT-HAB1 Y190 reporter strain and then tested for responsiveness to a range of compound concentrations (100, 50, 25, 10, 1, 0.2, 0.1 or 0 μM each test compound). These efforts yielded double mutant receptor variants with improved sensitivity for the 4 compound/receptor pairs examined (see entries labeled “Combinatorial Mutagenesis Screen I” in Table 1).

PYR1 K59R F108I S122G = target: T5, PYR1 K59R F108I S122G (Arabidopsis thaliana, UniProt O49686, F108I/K59R/S122G); assay: as above; type: cell-based
T5 construct: expressed in transfected cells; host or cells: S. cerevisiae Y190 two-hybrid reporter strain
T5 sequence (O49686 whole entry K59R/F108I/S122G): as the sequence (O49686 whole entry K59R/F108A/S122G/V164I) above, with A108I, I164V counted along it
T5 sequence (Q9CAJ0 23-511 partner): as the sequence (Q9CAJ0 23-511 partner) above
Text: as §2

[4] = tested on: 35S::PYR1^MANDI lines MDP1, MDP2, MDP3; assay: seed germination assay, 250 nM mandipropamid; type: in vivo, Arabidopsis; details: 3 days post-stratification
Text: To further characterize the physiological effects of the PYR1^MANDI/mandipropamid interaction, we characterized three independently generated transgenic Arabidopsis lines in more detail. These lines, initially named E9, E16 and E31 are henceforth referred to as MPD1, MPD2 and MPD3. Each of these lines is homozygous for a single 35S::PYR1^MANDI insertion site and is the result of independent transformation events. We first used germination assays to characterize the relative mandipropamid sensitivity of these lines. Seeds for the transgenics and wild type control were surface sterilized with bleach and then stratified for 4 days at 4° C. on 0.7% agar petri plates containing ½ MS salts and 0.5% sucrose in addition to either 250 nM mandipropamid or a mock treatment of 0.1% DMSO (the carrier solvent). After stratification, the plates were transferred to a growth chamber operating on a 16-hour day length cycle. Seed germination was scored 3 days post-stratification. […] To more definitively assess the relative sensitivity of the MDP1 and MDP2 lines to mandipropamid, we conducted germination dose-response experiments (using the same procedure described above) and confirmed that the MDP1 line is more sensitive to mandipropamid than MDP2 (FIG. 7B).

[5] = tested on: MDP1 and MDP2 genotypes (35S::PYR1^MANDI); assay: survival after water deprivation and re-watering; type: in vivo, Arabidopsis; details: 1 μM mandipropamid, 11 days water deprivation
Experimental: Examples 6 and 8 disclosed that mandipropamid treatments of PYR1^MANDI transgenic plants are sufficient to close guard cells (as indicated by thermal imaging) and confer drought tolerance. To investigate these responses further we performed three additional experiments using wild type Columbia, PYR1-OX and the MDP1 and MDP2 genotypes. Each experiment was conducted independently of the other at different times over the course of 8 months. Each experiment characterized 3 pots of each genotype (each pot contained 4 plants). After 2 weeks (exp. 1) or 3 weeks (Experiments 2 and 3) watering was ceased and the plants were treated with a mock or 1 μM mandipropamid solution made in water containing 0.02% Silwet L-77. These treatments were repeated every 4 (Experiment 1) or 3 days (Experiments 2 and 3). […] After 10 to 11 days of water deprivation the plants were re-watered to assess survival rates after extreme water deprivation. […] Inset in each image are the survival counts from Experiment 1 (upper numbers) and Experiments 2 and 3 (lower numbers). The survival rates have been separated because the experimental protocol for Experiment 1 differed from Experiments 2 and 3.
Plants were grown for ˜4 weeks until initial floral meristems became obvious, after which watering was ceased and the plants were treated with either a mock or 1 μM mandipropamid solution. […]

T1 sequence (O49686 whole entry K59R/V83L/F108A/S122G): as the sequence (O49686 whole entry K59R/F108A/S122G/V164I) above, with V83L, I164V counted along it
T1 sequence (Q9CAJ0 23-511 partner): as the sequence (Q9CAJ0 23-511 partner) above

Structure (SMILES): C#CCOc1ccc(CCNC(=O)C(OCC#C)c2ccc(Cl)cc2)cc1OC (centres unmarked) [Mandipropamid, mandipropamid]
- Threshold [1]: 0.05 µM
- Threshold [2]: 0.25 µM
- Threshold [3]: 0.25 µM
- Threshold (PYR1 K59R F108Q S122G): 10 µM
- Threshold (PYR1 K59R F108I S122G): 10 µM
- seed germination ([4]; MDP1 seed, 250 nM mandipropamid): near complete germination inhibition
- seed germination ([4]; MDP3, 250 nM mandipropamid): minimal sensitivity
- survival rates after water deprivation and re-watering, relative to wild type and PYR1-OX controls [5]: greatly improved
